Test results published in patent US6017890A, “Azole peptidomimetics as thrombin receptor antagonists” (Ortho-McNeil Pharmaceutical, Inc., priority 1999, dated 2000).
pIC50: −log10 of the molar value. Starred links: 1 amine or outer side, 2 acyl side, 3 side chain; linkers in the order of their positions; H or OH if unused. Non-standard residues stand in square brackets, D forms with d. Residues, ends and D or L forms follow the SMILES beside them. Phe(4-F)ψ(2,4-Thz) = O=C(c1csc([C@H](Cc2ccc(F)cc2)N[*:1])n1)[*:2]; Cha = N[C@@H](CC1CCCCC1)C(=O)O

Tests used:
[1] = biological target: T1, thrombin receptor (Homo sapiens, UniProt P25116); assay: In vitro thrombin receptor binding assay (displacement of tritiated 721-40 from CHRF membranes); details: tritiated 721-40 (Ser-pFPhe-Har-Leu-Har-Lys-Tyr-NH2) radioligand, read-out: Thr Receptor Binding IC50
T1 construct: CHRF membranes (Jones, Biochim. Biophys. Acta 1992, 1136, 272) are thawed from -70° C; endogenous in cells; host or cells: CHRF cell membranes
T1 sequence (P25116 22-425): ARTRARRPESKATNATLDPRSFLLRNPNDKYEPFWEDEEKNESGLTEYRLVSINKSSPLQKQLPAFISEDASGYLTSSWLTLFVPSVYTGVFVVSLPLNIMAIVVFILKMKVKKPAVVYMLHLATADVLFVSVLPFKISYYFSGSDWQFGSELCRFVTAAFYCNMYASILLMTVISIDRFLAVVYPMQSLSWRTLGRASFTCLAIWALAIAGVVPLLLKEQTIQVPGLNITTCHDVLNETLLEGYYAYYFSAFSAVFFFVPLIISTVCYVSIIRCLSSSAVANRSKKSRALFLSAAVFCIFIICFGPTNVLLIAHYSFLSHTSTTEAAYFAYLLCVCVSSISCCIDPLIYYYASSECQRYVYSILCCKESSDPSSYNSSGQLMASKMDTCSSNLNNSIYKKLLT
Method: CHRF membranes (Jones, Biochim. Biophys. Acta 1992, 1136, 272) are thawed from -70° C., centrifuged at maximum speed for 5 min, washed twice with binding buffer (50 mM HEPES containing 5 mM MgCl2 and 0.1% BSA), and re-suspended in binding buffer ([…]). 100 μl of membranes are added to the 24-Wallac plates and delivered to the Tomtech apparatus. In a typical experiment, 6 μl of samples (from a 125 μg/mL intermediary plate, 20% DMSO) and 44 μl buffer are delivered to the plates (final conc. of compounds is 3.7 μg/mL, 0.6% DMSO). Similarly, 6 μl 20% DMSO and 44 μl buffer are delivered to both column 1 (NSB) and column 12 (TB). 10 μl Ser-pFPhe-Har-Leu-Har-Lys-Tyr-NH2 [SEQ. ID. NO:2] (721-40; 500 μM in deionized water) is added to column 1. 50 μl tritiated 721-40 (specific activity 46 Ci/mmol) is added to all the wells. The plates are mixed well for 20 seconds, incubated for 30 min, and then harvested with 10 mM HEPES/138 mM NaCl using the Skatron harvester. The filters (GF/C Brandel FPXLR 296) are presoaked 3 h in 0.5% polyethylenimine in HEPES/0.1 M N-acetylglucosamine) are set in saran wrap and dried for 3 min in the microwave, and placed in sample bags (Wallac 1450-432). 4.5 mL scintillation fluid (Wallac, Betaplate Scint 1205-440) is added. The bags are sealed, placed in filter cassettes (Wallac 1450-104), and analyzed on the microbeta counter.
(§1) The table contains IC50 values (μM) of the compounds in a thrombin receptor binding assay, and IC50 values (μM) against platelet aggregation stimulated by two agonists, thrombin or SFLLRN-NH2 [SEQ. ID. NO:1] (TRAP).

[2] = biological target: T2, gel-filtered platelets (SFLLRN-NH2 (TRAP)-stimulated aggregation) (Homo sapiens, UniProt P25116); assay: In vitro inhibition of SFLLRN-NH2 (TRAP)-induced gel-filtered platelet aggregation; type: cell-based; details: agonist SFLLRN-NH2 (TRAP)
T2 sequence (P25116 42-425): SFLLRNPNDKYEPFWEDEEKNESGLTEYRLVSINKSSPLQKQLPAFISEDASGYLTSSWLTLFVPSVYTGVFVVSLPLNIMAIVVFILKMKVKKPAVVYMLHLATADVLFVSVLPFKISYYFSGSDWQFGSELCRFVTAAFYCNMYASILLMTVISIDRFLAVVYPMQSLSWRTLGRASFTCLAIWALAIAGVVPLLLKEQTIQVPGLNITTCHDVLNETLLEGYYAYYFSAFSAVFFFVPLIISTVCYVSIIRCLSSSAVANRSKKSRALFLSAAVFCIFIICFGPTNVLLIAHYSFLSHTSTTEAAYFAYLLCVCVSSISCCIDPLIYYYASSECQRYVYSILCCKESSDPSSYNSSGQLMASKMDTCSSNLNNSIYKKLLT
Method: The percentage of platelet aggregation is calculated as an increase in light transmission of compound-treated platelet concentrate vs. control-treated platelet concentrate. Human blood is obtained from drug free, normal donors in tubes containing 0.13 M sodium citrate. Platelet rich plasma (PRP) is collected by centrifugation of whole blood at 200×g for 10 min at 25° C. The PRP (5 mL) is gel filtered through Sepharose 2B (bed volume 50 mL), and the platelet count is adjusted to 2×10^7 platelets per sample. The following constituents are added to a siliconized cuvette: concentrated platelet filtrate and Tyrode's buffer (0.14 M NaCl, 0.0027 M KCl, 0.012 M NaHCO3, 0.76 mM Na2 HPO4, 0.0055 M glucose, 2 mg/mL BSA and 5.0 mM HEPES@pH 7.4) in an amount equal to 350 μl, 50 μl of 20 mM calcium and 50 μl of the test compound. Aggregation is monitored in a BIODATA aggregometer for the 3 min following the addition of agonist (thrombin 50 μl of 1 unit/mL).
as §1

CNCC(=O)N[C@@H](Cc1ccc(F)cc1)c1nc(C(=O)N[C@@H](CC2CCCCC2)C(=O)N[C@@H](CCCN=C(N)N)C(=O)NCc2ccccc2)co1 [Compound 1, 2-[1(S)-Sarcosineamido-2-(4-fluorophenyl)ethyl]oxazole-4-carboxy-cyclohexylalanyl-arginine benzylamide]
pIC50 [1]: 5.70
pIC50 [2]: 5.00

N=C(N)NCCC[C@H](NC(=O)[C@H](CC1CCCCC1)NC(=O)c1coc([C@H](Cc2ccc(F)cc2)NC(=O)CCN)n1)C(=O)NCc1ccccc1 [Compound 2, 2-[1(S)-β-Alanineamido-2-(4-fluorophenyl)ethyl]oxazole-4-carboxy-cyclohexylalanyl-arginine benzylamide]
pIC50 [1]: 5.09
pIC50 [2]: 5.15

CNCC(=O)N[C@@H](Cc1ccc(F)cc1)c1nc(C(=O)N[C@@H](CC2CCCCC2)C(=O)N[C@@H](CCCN=C(N)N)C(=O)NCCc2ccccc2)cs1 [Compound 3, 2-[1(S)-Sarcosineamido-2-(4-fluorophenyl)ethyl]thiazole-4-carboxy-cyclohexylalanyl-arginine phenethylamide]
pIC50 [1]: 4.46
pIC50 [2]: 6.22

CC[C@H](C)[C@H](N)C(=O)N[C@@H](Cc1ccc(F)cc1)c1nc(C(=O)N[C@@H](CC2CCCCC2)C(=O)N[C@@H](CCCN=C(N)N)C(=O)N[C@@H](Cc2ccccc2)C(N)=O)cs1 [Compound 5, 2-[1(S)-Isoleucineamido-2-(4-fluorophenyl)ethyl]thiazole-4-carboxy-cyclohexylalanyl-arginyl-phenylalanineamide] (H-I[Phe(4-F)ψ(2,4-Thz)][Cha]RF-NH2)
pIC50 [1]: 5.46
pIC50 [2]: 5.05

CNCC(=O)N[C@@H](Cc1ccc(F)cc1)c1nc(C(=O)N[C@@H](CCCCN)C(=O)N[C@@H](CCCNC(=N)N)C(=O)NCCc2ccccc2)cs1 [Compound 6, 2-[1(S)-Sarcosineamido-2-(4-fluorophenyl)ethyl]thiazole-4-carboxy-lysyl-arginine phenethylamide]
pIC50 [1]: 4.81
pIC50 [2]: 5.40

CNCC(=O)N[C@@H](Cc1ccc(F)cc1)c1nc(C(=O)N[C@@H](CC2CCCCC2)C(=O)N[C@@H](CCCNC(=N)N)C(=O)NCc2ccccc2)c(C)o1 [Compound 7, 2-[1(S)-Sarcosineamido-2-(4-fluorophenyl)ethyl]-5-methyloxazole-4-carboxy-cyclohexylalanyl-arginine benzylamide]
pIC50 [1]: 5.15
pIC50 [2]: 4.66

Cc1oc([C@H](Cc2ccc(F)cc2)NC(=O)[C@@H](N)Cc2cn(Cc3ccccc3)cn2)nc1C(=O)N[C@@H](CC1CCCCC1)C(=O)N[C@@H](CCCNC(=N)N)C(=O)NCc1ccccc1 [Compound 8, 2-[1(S)-N(tau)-Benzyl-histidineamido-2-(4-fluorophenyl)ethyl]-5-methyloxazole-4-carboxy-cyclohexylalanyl-arginine benzylamide]
pIC50 [1]: 4.52
pIC50 [2]: 5.30

CC(=O)N[C@@H](Cc1ccc(F)cc1)c1nc(C(=O)N[C@@H](CC2CCCCC2)C(=O)N[C@@H](CCCNC(=N)N)C(=O)NCc2ccccc2)c(C)o1 [Compound 9, 2-[1(S)-Acetamido-2-(4-fluorophenyl)ethyl]-5-methyloxazole-4-carboxy-cyclohexylalanyl-arginine benzylamide]
pIC50 [1]: 4.51
pIC50 [2]: 4.96

Cc1oc([C@H](Cc2ccc(F)cc2)N(C)C)nc1C(=O)N[C@@H](CC1CCCCC1)C(=O)N[C@@H](CCCNC(=N)N)C(=O)NCc1ccccc1 [Compound 10, 2-[1(S)-N,N-Dimethyl-2-(4-fluorophenyl)ethyl]-5-methyloxazole-4-carboxy-cyclohexylalanyl-arginine benzylamide]
pIC50 [2]: 4.77
